Laboratory results reported in a melting point compilation (Tetko et al.; mined from patent text by program, amines drawn as free bases though some values may be those of a salt).

melting point [°C] | SMILES
168 to 169 | COC(=O)Cn1nnc(NC(=O)C(c2ccccc2)c2ccccc2)n1
167 to 168 | COc1cccc(CNC(=O)c2c(-c3ccc(F)cc3)c(-c3ccc(F)cc3)c(C=O)n2C(C)C)c1
205 to 208 | Nc1ccnc(N2CCN(c3nc4cccccc-4n3)CC2)n1
193 to 194 | OCC(O)COc1cccc2cccnc12 (configuration not stated)
130 to 132 | CCNc1ccc(-c2ccnc3c(C(=O)c4cccs4)cnn23)cc1
203 to 205 | O=C(NNC(=O)c1ccc(Oc2ccccc2)cc1)c1ccc(O)cc1
222 to 224 | CNc1nn(C(=O)NC(C)C(C)Cc2ccc(Cl)cc2)c(=O)n1C (configuration not stated)
129 to 133 | CCOC(=O)c1ncc2[nH]c3cccc(COC(C)=O)c3c2c1COC
79 to 80 | CCc1c(C(=O)c2cc(C)cc(C)c2)n(CC2=CC(CO)C(CO)C2)c(=O)[nH]c1=O (configuration not stated)
167 to 169 | O=C1C(Cl)=CC(=NS(=O)(=O)c2cccs2)c2ccccc21
259 to 263 | CC1(C)C(=O)NC(=O)c2c1ccc(N)c2[N+](=O)[O-]
< 50 | O=[N+]([O-])c1ccccc1OCc1ccccc1
96 to 98 | CC(=O)OCC1OC(n2cc(C)c(=O)[nH]c2=O)CC1N=[N+]=[N-] (configuration not stated)
197 to 200 | NC(=O)NS(=O)(=O)c1cccc(Cl)c1Cl
84.5 to 86.5 | C=C1c2ccccc2CC(N)c2ccccc21 (configuration not stated)
123 to 124 | CCc1nc(/C=C/c2cn(-c3ccccc3)nc2OCc2ccc(OCc3nc(-c4ccc(CC(=O)O)cc4)oc3C)c(OC)c2)cs1
202 to 203 | CC(=O)N(C)c1c(C(=O)c2cccc(Cl)c2)[nH]c2cc(Cl)ccc12
> 245 | CN1CCN(Cc2cccc(-c3cc4c(Nc5cccc6[nH]ccc56)c(C#N)cnc4s3)c2)CC1
87.5 to 89 | CN(C)CCOc1ccc2c(=O)c3ccc(OCCN(C)C)cc3oc2c1
114 to 118 | CCOc1ccc(-n2c(N)cc(=O)nc2Nc2ccccc2)cc1
101 to 102 | COc1c(C)c(Cc2ccc(Cl)cc2)c(OC)c2ccccc12
275 to 278 | O=c1[nH]cnc2cscc12
164 to 165 | Cc1nc(N)c2nc(CO)n(Cc3cc(-c4ccc(F)cc4)no3)c2c1C
155 to 156 | Cc1oc(-c2ccccc2)nc1COc1ccc(COc2nn(Cc3ccc(OCc4nc(-c5ccccc5)oc4C)cc3)cc2C=O)cc1

melting point [°C] | SMILES
85 | CC(=O)OCC(=O)c1ccc(C)cc1
88 to 90 | COC(=O)c1cccc(OC(F)(F)C(F)Br)c1 (configuration not stated)
170 to 171 | O=C(c1ccn2c1CSC2c1cccnc1)c1cn(CCO)c2cc(-c3ccc(F)cc3)ccc12 (configuration not stated)
71 to 72 | COc1ccc2c(c1)C(=O)C(Cc1ccccc1)CO2 (configuration not stated)
221 to 222 | Cc1cc(=O)c(OCc2ccccc2)c(C(=O)NC2CCC2)n1C
101 | Cn1c(C(F)(F)F)nn(-c2ccccc2N)c1=O
36 to 38 | COc1ccccc1OCCCl
143 to 145 | CCC(C)n1cc(Cl)nc(N2CCc3cc(OC)cc(Cl)c32)c1=O (configuration not stated)
179 to 181 | CCC1(c2cc(NC(=O)c3c(OC)cccc3OC)no2)CCCCC1
125 | N#Cc1cnc2n(c1=O)CCCCC2
178 to 182 | COc1ccc(N2CCCn3c2nc2c(Cl)ccc(C(OC(F)F)C(F)(F)F)c23)c(C)c1 (configuration not stated)
194 to 196 | O=C(O)c1ccc(-n2cc[nH]c2=S)cc1
111 to 112 | CCNC(=O)n1nc(Oc2ncc(C(F)(F)F)cc2Cl)c(Cl)c1C
198 to 199 | CNC(=NC#N)NCCSCc1nsc(NC(=N)N)n1
66.3 to 66.5 | CC(=O)c1oc2ccc(C)cc2c1C
88 to 91 | CCCCOP(=O)(CCCCCC1(C(=O)NCC(F)(F)F)c2ccccc2-c2ccccc21)OCCCC
118 to 123 | N#Cc1ccc(C(F)(F)C(F)(F)c2ccccc2)cc1
183 to 186 | Cc1nc(-n2nnc(C(=O)NCc3ccccc3)c2C)sc1C(=O)NCc1ccccc1
121 | CN(CCCCC(=O)OC[C@@H]1CC(c2ccc(-c3ccc(N4C[C@H](Cn5ccnn5)OC4=O)cc3F)cn2)=NO1)C(=O)OC(C)(C)C
106 | CCc1noc(-c2cn(-c3ccccc3OCc3ccccc3)cn2)n1
158 to 162 | CCOCCOCCn1ccc2c1CC(c1ccccc1Cl)C1C(=O)NC(=O)C21 (configuration not stated)
161 to 162 | COc1cccc2sc(NC(=O)COC(C)=O)nc12
160 to 165 | CCN(CC)C(=O)/C=C/c1ccc(Cn2c(-c3ccc(O)cc3)c(C)c3cc(O)ccc32)cc1
172 to 174 | CCOCc1nc2c(N)nc3cccnc3c2n1CC(C)(C)NC(=O)NC(C)C

melting point [°C] | SMILES
140 to 143 | COc1ccc([C@H]2c3[nH]c4ccccc4c3C[C@H]3C(=O)N(CCc4ccccn4)C(=O)N23)cc1 (relative stereo)
44 to 45 | CCCCCCc1oc(C=Cc2ccccc2)nc1CO
101 to 104 | Cc1c(Cc2cccnc2)ccc2ccc(Br)cc12
325 to 326 | O=C(Nc1cccc2c(=O)cc(C(=O)O)oc12)c1ccc2c(c1)CCC(CCCc1ccccc1)O2 (configuration not stated)
68 to 70 | N=C(N)c1ccc2ncn(CC(=O)N3CCC(Cc4ccccc4)CC3)c2c1
176 to 177 | COc1ccc2sc(C(=O)Nc3ccc(S(=O)(=O)OC)cc3)c(OC(C)C)c2c1
233 to 234 | Cc1c(-c2ccc(O)cc2)sc(C=NO)c1-c1ccc(O)cc1
159 to 161 | CC(=O)C1CCc2c([nH]c3ccc(Cl)cc23)C1 (configuration not stated)
83 to 87 | CCNc1cc([N+](=O)[O-])ccc1OCCOC
145 to 147 | O=C1c2ccccc2OC(CCCl)CN1Cc1ccccc1 (configuration not stated)
233 to 235 | CCOC(=O)c1csc(NC(=O)c2cc(C(C)(C)C)c(O)c(C(C)(C)C)c2)n1
172 to 173 | CC(C)S(=O)(=O)C(C#N)=C(Nc1cc(C(F)(F)F)cc(C(F)(F)F)c1)NC1CCCC1
101 to 103 | CCCc1nc2c(N)nc3cc(-c4ccccc4)ccc3c2n1CCCC(C)N(OC)C(=O)NC(C)C (configuration not stated)
52 to 54 | COCc1cc(-c2ncc(C(F)(F)F)cc2Cl)ccc1Cl
191 to 192 | Cc1cccc2c1nc1n2CC(C(C)(C)C)Oc2c(Cl)cccc2-1 (configuration not stated)
132 | CCOC(=O)c1cnc2c(C(F)(F)F)cc(-c3ccc(C(F)(F)F)cc3)cn12
109 | CC(=O)CC(=O)Nc1ccc(Br)cc1C
212 to 214 | O=C(Nc1nc(-c2ccccc2)c(-c2nc3ccccc3c(=O)n2-c2ccccc2Cl)s1)c1ccccc1
233 to 238 | COc1ccc(OCc2ccccn2)cc1/C=C/c1cc(/C=C/c2c[nH]c3ccccc23)n[nH]1
160 to 161 | CCC1(CC)CC(c2ccc(OC)c(OC)c2)=NN(C2CCN(C(=O)c3ccccc3)CC2)C1=O
222 to 224 | NC(=O)C(=Cc1c[nH]c2ncccc12)c1ccccc1
> 250 | NSc1nc(N)nc2nc[nH]c12

SMILES | melting point [°C]
O=NCNC1=Nc2ccsc2C(c2ccccc2)=NC1 | 156 to 159
CCc1c(C)[nH]c2c1C(=S)C1CNCCC1C2 (configuration not stated) | 190 to 194
